The subject of data set [1] is RAW264.7. The experiment in a line: Cytotoxicity against mouse RAW264.7 cells assessed as reduction in cell viability at 100 uM after 24 hrs by MTT assay. As to conditions: raw264.7, 24 h. In kind it is cell-based. On the technique in general: Tetrazolium assays rely on reduction of a dye to a coloured formazan, in cell work by metabolically active cells.
The test system of data set [2] is RAW264.7. The data set is described as follows: Cytotoxicity against mouse RAW264.7 cells assessed as reduction in cell viability at 20 to 80 uM after 24 hrs by MTT assay. In kind it is cell-based. As to conditions: raw264.7, 24 h.
In a further data set the target is Toll-like receptor 4 (Homo sapiens, UniProt O00206). The data set is described as follows: Binding affinity to recombinant human TLR4 using phage displayed compound by Phage-ELISA. On the technique in general: In an ELISA, binding on a coated surface is turned into a signal by an enzyme label.

Active and inactive are the calls of the source. The calls are words filed in the database; no cut-off is given here.

Chain of Toll-like receptor 4 (O00206 whole entry): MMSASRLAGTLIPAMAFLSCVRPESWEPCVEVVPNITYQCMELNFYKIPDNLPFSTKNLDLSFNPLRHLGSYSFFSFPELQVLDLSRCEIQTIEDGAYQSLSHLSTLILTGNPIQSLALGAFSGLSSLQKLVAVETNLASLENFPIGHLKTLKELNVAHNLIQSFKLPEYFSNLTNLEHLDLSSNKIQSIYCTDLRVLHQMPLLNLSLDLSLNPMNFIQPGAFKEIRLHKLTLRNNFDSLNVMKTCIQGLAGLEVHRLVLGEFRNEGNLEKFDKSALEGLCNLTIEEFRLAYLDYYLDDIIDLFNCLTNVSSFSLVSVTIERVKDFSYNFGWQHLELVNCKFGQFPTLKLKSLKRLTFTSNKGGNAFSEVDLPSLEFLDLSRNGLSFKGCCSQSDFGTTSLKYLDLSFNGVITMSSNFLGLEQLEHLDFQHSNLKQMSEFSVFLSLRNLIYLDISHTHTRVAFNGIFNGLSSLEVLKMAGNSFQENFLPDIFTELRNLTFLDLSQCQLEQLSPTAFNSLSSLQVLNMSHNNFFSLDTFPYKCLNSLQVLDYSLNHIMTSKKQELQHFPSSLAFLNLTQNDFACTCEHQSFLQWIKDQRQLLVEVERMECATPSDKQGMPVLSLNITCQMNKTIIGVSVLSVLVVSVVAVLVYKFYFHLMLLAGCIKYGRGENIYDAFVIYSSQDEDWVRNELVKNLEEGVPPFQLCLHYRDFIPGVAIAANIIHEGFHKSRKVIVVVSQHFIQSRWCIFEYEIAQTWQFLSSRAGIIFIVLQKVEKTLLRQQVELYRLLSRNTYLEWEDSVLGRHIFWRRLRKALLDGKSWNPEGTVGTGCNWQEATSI

Take H-FGRYFPCLNWLG-OH: the Activity entry was “Toxic” with RAW264.7 [1] and “Non-Toxic” in the data set with RAW264.7 [2]. Further, the outcome on Toll-like receptor 4 was Active.

Take H-LWWCFHSLRWLG-OH: the Activity result was “Toxic” in the data set on RAW264.7 [1] and “Non-Toxic” in the data set with RAW264.7 [2]. On Toll-like receptor 4, the outcome was Active.

Consider H-HWWHFHSLRWLG-OH, for which the Activity result in the data set with RAW264.7 [1] was “Toxic”; with RAW264.7 [2], “Non-Toxic”. Besides, the result on Toll-like receptor 4 was Active.

With H-FWIFSRYPGASA-OH, the results for the Activity result in the data set on RAW264.7 [1] and in the data set on RAW264.7 [2] were “Toxic” and “Non-Toxic”, respectively. The outcome on Toll-like receptor 4 was Active.

The record behind these values is ChEMBL document CHEMBL4359843, “Linear and Rationally Designed Stapled Peptides Abrogate TLR4 Pathway and Relieve Inflammatory Symptoms in Rheumatoid Arthritis Rat Model” (J Med Chem, 2019).
